# Biological target: Soluble epoxide hydrolase (Homo sapiens)
# Assay: Inhibition of human recombinant soluble epoxide hydrolase expressed in Escherichia coli after 30 mins by PHOME-based fluorescence assay
row,SMILES,IC50
1,COc1ccc(-c2nc3ccc(C)cn3c2NC2CCCCC2)cc1OCCCNC(=O)Nc1ccc(OC(F)(F)F)cc1,1110 nM
2,Cc1ccc2nc(-c3ccc(OCCCNC(=O)Nc4ccc(C(F)(F)F)cc4)c(Cl)c3)c(NC3CCCCC3)n2c1,192 nM
3,COc1cc(-c2nc3ccc(C)cn3c2NC2CCCCC2)ccc1OCCCNC(=O)NC1CCCCC1,190 nM
4,COc1cc(-c2nc3ccc(C)cn3c2NC2CCCCC2)ccc1OCCCNC(=O)Nc1ccc(C(F)(F)F)cc1,439 nM
5,COc1cc(-c2nc3ccc(C)cn3c2NC2CCCCC2)ccc1OCCCNC(=O)Nc1ccc(OC(F)(F)F)cc1,116 nM
6,COc1cc(-c2nc3ccc(Cl)cn3c2NC2CCCCC2)ccc1OCCCNC(=O)Nc1ccc(C(F)(F)F)cc1,336 nM
7,COc1cc(-c2nc3ccc(F)cn3c2NC2CCCCC2)ccc1OCCCNC(=O)Nc1ccc(OC(F)(F)F)cc1,696 nM
8,COc1cc(-c2nc3ccc(F)cn3c2NC2CCCCC2)ccc1OCCCNC(=O)Nc1ccc(C(F)(F)F)cc1,649 nM
9,COc1cc(-c2nc3ccc(C)cn3c2NC2CCCC2)ccc1OCCCNC(=O)Nc1ccc(OC(F)(F)F)cc1,473 nM
10,COc1cc(-c2nc3ccc(C)cn3c2NC2CCCC2)ccc1OCCCNC(=O)Nc1ccc(C(F)(F)F)cc1,614 nM
11,COc1cc(-c2nc3ccc(C)cn3c2NC(C)C)ccc1OCCCNC(=O)Nc1ccc(C(F)(F)F)cc1,620 nM
12,COc1cc(-c2nc3ccc(F)cn3c2NC2CCCC2)ccc1OCCCNC(=O)Nc1ccc(C(F)(F)F)cc1,480 nM
13,COc1cc(-c2nc3ccc(Cl)cn3c2NC(C)C)ccc1OCCCNC(=O)Nc1ccc(C(F)(F)F)cc1,439 nM
14,O=C(Nc1ccc(Cl)cc1)N1CCC(CO)CC1,2240 nM

# Reference: ChEMBL document CHEMBL2331454, “Synthesis and structure-activity relationship studies of novel dual inhibitors of soluble epoxide hydrolase and 5-lipoxygenase” (J Med Chem, 2013)
